Key:
Format in all cases: in vivo
[1] = system: Amaranthus retroflexus (AMARE); assay: B. Herbicidal post-emergence efficacy, AMARE
Summary of the method: (§1)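 Readout: visual % kill vs untreated, ~3 wk post-spray. Plants in sandy loam pots, treated at one-leaf stage; spray = WP/EC in water + 0.5% additive, 600 L/ha, dose ≤1280 g/ha.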

Lolium rigidum (LOLRI) = assay: A. Herbicidal pre-emergence efficacy, LOLRI; details: dosage 1280 g/ha
Summary of the method: (§2)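 Applied before emergence onto covering soil at rates of 1280 g/ha or less, using 600 L/ha spray water with 0.5% additive. Scoring: visual % efficacy after ~3 weeks, greenhouse.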

Poa annua (POAAN) [2] = assay: A. Herbicidal pre-emergence efficacy, POAAN
Summary of the method: as §2

[3] = system: Alopecurus myosuroides (ALOMY); assay: A. Herbicidal pre-emergence efficacy, ALOMY; details: 1280 g/ha; scored visually after about 3 weeks vs untreated controls
Text: Seeds of mono- and dicotyledonous weed plants were placed in plastic pots in sandy loam soil (doubly sown with one species each of mono- or dicotyledonous weed plants per pot) and covered with soil. The compounds of the invention, formulated in the form of wettable powders (WP) or as emulsion concentrates (EC), were then applied onto the surface of the covering soil as aqueous suspension or emulsion with addition of 0.5% additive at a water application rate of 600 liters per hectare (converted). After the treatment, the pots were placed in a greenhouse and kept under good growth conditions for the test plants. After about 3 weeks, the efficacy of the preparations was scored visually in comparison with untreated controls as percentages.
For example, • 100% efficacy=plants have died, • 0% efficacy=like untreated control plants.
Tables A1a to A12c below show the effects of selected compounds of the general formula (I) according to table 1 on various harmful plants at an application rate corresponding to 1280 g/ha or less, which were obtained by the experimental procedure mentioned above.

Stellaria media (STEME) [4] = assay: A. Herbicidal pre-emergence efficacy, STEME; details: dosage 1280 g/ha
Summary of the method: as §2

[5] = system: Amaranthus retroflexus (AMARE); assay: A. Herbicidal pre-emergence efficacy, AMARE
Summary of the method: as §2

Veronica persica (VERPE) [6] = assay: A. Herbicidal pre-emergence efficacy, VERPE
Summary of the method: as §2

[7] = system: Abutilon theophrasti (ABUTH); assay: B. Herbicidal post-emergence efficacy, ABUTH; details: rated visually after about 3 weeks
Summary of the method: as §1

[8] = system: Echinochloa crus-galli (ECHCG); assay: A. Herbicidal pre-emergence efficacy, ECHCG; details: 1280 g/ha; scored visually after about 3 weeks vs untreated controls
Summary of the method: as §2

Kochia scoparia (KCHSC) [9] = assay: B. Herbicidal post-emergence efficacy, KCHSC; details: 1280 g/ha
Summary of the method: as §1

Poa annua (POAAN) [10] = assay: B. Herbicidal post-emergence efficacy, POAAN; details: 1280 g/ha
Summary of the method: as §1

[11] = system: Digitaria sanguinalis (DIGSA); assay: A. Herbicidal pre-emergence efficacy, DIGSA; details: scored visually after about 3 weeks vs untreated controls
Summary of the method: as §2

Setaria viridis (SETVI) = assay: A. Herbicidal pre-emergence efficacy, SETVI
Summary of the method: as §2

Stellaria media (STEME) [12] = assay: B. Herbicidal post-emergence efficacy, STEME
Summary of the method: as §1

[13] = system: Matricaria inodora (MATIN); assay: A. Herbicidal pre-emergence efficacy, MATIN; details: pre-emergence, dosage 1280 g/ha
Summary of the method: as §2

Kochia scoparia (KCHSC) [14] = assay: A. Herbicidal pre-emergence efficacy, KCHSC; details: pre-emergence, dosage 1280 g/ha
Summary of the method: as §2

[15] = system: Abutilon theophrasti (ABUTH); assay: A. Herbicidal pre-emergence efficacy, ABUTH; details: 1280 g/ha; scored visually after about 3 weeks vs untreated controls
Summary of the method: as §2

Veronica persica (VERPE) [16] = assay: B. Herbicidal post-emergence efficacy, VERPE
Summary of the method: as §1

[17] = system: Echinochloa crus-galli (ECHCG); assay: B. Herbicidal post-emergence efficacy, ECHCG; details: 1280 g/ha, rated visually after about 3 weeks
Summary of the method: as §1

SMILES: Cc1cccc(Oc2ncc(Br)cn2)c1OS(=O)(=O)CCCC(F)(F)F [Example I-35]
- Post-emergence efficacy against AMARE ([1]; 320 g/ha): 90%
- Post-emergence efficacy against AMARE ([1]; 1280 g/ha): 100%
- Pre-emergence efficacy against LOLRI (Lolium rigidum (LOLRI)): 100%
- Pre-emergence efficacy against POAAN (Poa annua (POAAN) [2]; dosage 320 g/ha): 100%
- Pre-emergence efficacy against POAAN (Poa annua (POAAN) [2]; dosage 1280 g/ha): 100%
- Pre-emergence efficacy against ALOMY [3]: 90%
- Pre-emergence efficacy against STEME (Stellaria media (STEME) [4]): 100%
- Pre-emergence efficacy against AMARE in % ([5]; 320 g/ha): 90%
- Pre-emergence efficacy against AMARE in % ([5]; 1280 g/ha): 100%
- Pre-emergence efficacy against VERPE in % (Veronica persica (VERPE) [6]; 320 g/ha): 90%
- Pre-emergence efficacy against VERPE in % (Veronica persica (VERPE) [6]; 1280 g/ha): 100%
- Post-emergence efficacy against ABUTH in % ([7]; 320 g/ha): 100%
- Post-emergence efficacy against ABUTH in % ([7]; 1280 g/ha): 100%
- Pre-emergence efficacy against ECHCG [8]: 100%
- Post-emergence efficacy against KCHSC (Kochia scoparia (KCHSC) [9]): 100%
- Post-emergence efficacy against POAAN (Poa annua (POAAN) [10]): 90%
- Pre-emergence efficacy against DIGSA ([11]; 320 g/ha): 90%
- Pre-emergence efficacy against DIGSA ([11]; 1280 g/ha): 100%
- Pre-emergence efficacy against SETVI (Setaria viridis (SETVI); dosage 320 g/ha): 100%
- Pre-emergence efficacy against SETVI (Setaria viridis (SETVI); dosage 1280 g/ha): 100%
- Post-emergence efficacy against STEME (Stellaria media (STEME) [12]; 80 g/ha): 90%
- Post-emergence efficacy against STEME (Stellaria media (STEME) [12]; 320 g/ha): 100%
- Post-emergence efficacy against STEME (Stellaria media (STEME) [12]; 1280 g/ha): 100%
- Pre-emergence efficacy against MATIN [13]: 100%
- Pre-emergence efficacy against KCHSC (Kochia scoparia (KCHSC) [14]): 90%
- Pre-emergence efficacy against ABUTH [15]: 100%
- Post-emergence efficacy against VERPE (Veronica persica (VERPE) [16]; 80 g/ha): 90%
- Post-emergence efficacy against VERPE (Veronica persica (VERPE) [16]; 320 g/ha): 90%
- Post-emergence efficacy against VERPE (Veronica persica (VERPE) [16]; 1280 g/ha): 100%
- Post-emergence efficacy against ECHCG in % [17]: 90%
